From the supplement of paper PMC10627819

Legend:
S. pneumoniae D39V [1] = test: fitness (endpoint OD595 vs no drug) (fraction); higher = more growth
How it was run: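 Fitness is computed from the optical density at which cultures reach stationary phase, divided by the robust mean of no-drug control wells. Any value above 1 is set to 1. Cultures started at OD595 0.01 in 384-well plates with TSB, LB Lennox or CY at 37 °C, and OD595 was read every 30 min for 14 h against a first-reading background.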

S. aureus DSM 20231 = test: Bliss interaction score (quartile over a dose matrix) (fitness difference); higher = more antagonism (negative = synergy)
How it was run: (§1)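 Fitness was derived from optical density at entry into stationary phase, divided by the robust mean of the no-drug wells on the same plate. That reading was taken as OD595, and the ratio was capped at 1. Single-drug fitness was inferred from the combination data. The Bliss score, observed fitness minus the expected product of single-drug fitness, was summarised as quartiles over technical, biological and donor/recipient replicates.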

S. pneumoniae D39V [2] = test: as above
How it was run: as §1

B. subtilis 168 = test: as above
How it was run: as §1

S. aureus Newman = test: as above
How it was run: as §1
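Wherever Bliss interaction score (quartile over a dose matrix) is given: first quartile when negative (synergy) and third quartile when positive (antagonism).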

O=C(O[C@@H]1Cc2c(O)cc(O)cc2O[C@@H]1c1cc(O)c(O)c(O)c1)c1cc(O)c(O)c(O)c1 [EGCG] + Clc1ccc(COC(Cn2ccnc2)c2ccc(Cl)cc2Cl)c(Cl)c1 [Miconazole]
fitness, S. pneumoniae D39V [1]
Settings	partner 1.073 µg/mL	partner 1.25 µg/mL	partner 2.145 µg/mL	partner 2.5 µg/mL	partner 4.29 µg/mL	partner 5 µg/mL
first compound 12.5 µg/mL	0.956	0.913	≥ 1	0.805	0.824	0.858
first compound 25 µg/mL	0.983	≥ 1	≥ 1	0.923	0.834	0.89
first compound 50 µg/mL	0.987	0.952	0.984	0.86	0.98	0.933

Settings	Bliss interaction score
B. subtilis 168	-0.0649
S. aureus DSM 20231	0.278
S. aureus Newman	0.167
S. pneumoniae D39V [2]	0.0773

O=C(O[C@@H]1Cc2c(O)cc(O)cc2O[C@@H]1c1cc(O)c(O)c(O)c1)c1cc(O)c(O)c(O)c1 [EGCG] + O=C1CN(/N=C/c2ccc([N+](=O)[O-])o2)C(=O)N1 [Nitrofurantoin]
fitness, S. pneumoniae D39V [1]
Settings	partner 1.285 µg/mL	partner 2 µg/mL	partner 2.57 µg/mL	partner 4 µg/mL	partner 8 µg/mL
first compound 12.5 µg/mL	0.914	0.858	0.938	0.832	0.558
first compound 25 µg/mL	0.949	0.878	0.924	0.891	0.571
first compound 50 µg/mL	0.954	≥ 1	0.951	0.802	0.566

S. pneumoniae D39V [1], partner 5.14 µg/mL, one replicate
Settings	fitness
first compound 12.5 µg/mL	0.917
first compound 25 µg/mL	0.901
first compound 50 µg/mL	0.921

Settings	Bliss interaction score
B. subtilis 168	0.106
S. aureus DSM 20231	0.103
S. aureus Newman	0.0864
S. pneumoniae D39V [2]	0.0733

C[C@@H](O)[C@H]1C(=O)N2C(C(=O)O)=C(SCCNC=N)C[C@H]12 [Imipenem] + C/C(=C\C(=O)OCCCCCCCCC(=O)O)C[C@@H]1OC[C@H](C[C@@H]2O[C@H]2[C@@H](C)[C@H](C)O)[C@@H](O)[C@H]1O [Pseudomonic acid]
fitness, S. pneumoniae D39V [1]
Settings	first compound 0.005 µg/mL	first compound 0.0065 µg/mL	first compound 0.01 µg/mL	first compound 0.013 µg/mL	first compound 0.02 µg/mL	first compound 0.026 µg/mL
partner 0.03 µg/mL	0.897	0.799	0.896	0.889	0.917	0.89
partner 0.06 µg/mL	0.772	–	0.799	0.7	0.77	0.688
partner 0.12 µg/mL	0.578	0.439	0.583	0.479	0.583	0.504

Settings	Bliss interaction score
B. subtilis 168	0.12
S. aureus DSM 20231	0.0093
S. aureus Newman	0.0109
S. pneumoniae D39V [2]	-0.146

C[C@@H](O)[C@H]1C(=O)N2C(C(=O)O)=C(SCCNC=N)C[C@H]12 [Imipenem] + CC1=C\[C@@H](O)CC(=O)Cc2nc(co2)C(=O)N2CCC=C2C(=O)O[C@H](C(C)C)[C@H](C)/C=C/C(=O)NC\C=C\1 [Virginiamycin M1]
fitness, S. pneumoniae D39V [1], one replicate
Settings	partner 0.15 µg/mL	partner 0.3 µg/mL	partner 0.5 µg/mL	partner 1 µg/mL
first compound 0.005 µg/mL	0.993	0.88	0.978	0.979
first compound 0.01 µg/mL	≥ 1	0.995	0.97	≥ 1
first compound 0.02 µg/mL	0.988	0.901	0.978	≥ 1

fitness, S. pneumoniae D39V [1]
Settings	first compound 0.005 µg/mL	first compound 0.0065 µg/mL	first compound 0.01 µg/mL	first compound 0.013 µg/mL	first compound 0.02 µg/mL	first compound 0.026 µg/mL
partner 0.5 µg/mL	–	0.992	–	0.999	–	0.964
partner 1 µg/mL	–	0.983	–	≥ 1	–	0.978
partner 2 µg/mL	0.893	0.983	0.88	–	0.888	0.891

Settings	Bliss interaction score
B. subtilis 168	0.0502
S. aureus DSM 20231	0.0515
S. aureus Newman	-0.0199
S. pneumoniae D39V [2]	0.0822

C[C@@H](O)[C@H]1C(=O)N2C(C(=O)O)=C(SCCNC=N)C[C@H]12 [Imipenem] + CC(=O)NC[C@H]1CN(c2ccc(N3CCOCC3)c(F)c2)C(=O)O1 [Linezolid]
fitness, S. pneumoniae D39V [1]
Settings	first compound 0.005 µg/mL	first compound 0.0065 µg/mL	first compound 0.01 µg/mL	first compound 0.013 µg/mL	first compound 0.02 µg/mL	first compound 0.026 µg/mL
partner 0.105 µg/mL	0.845	–	0.837	–	0.833	–
partner 0.2 µg/mL	–	0.7	–	0.775	–	0.71
partner 0.21 µg/mL	0.752	–	0.727	–	0.701	–
partner 0.4 µg/mL	–	0.506	–	0.592	–	0.494
partner 0.42 µg/mL	0.6	–	0.47	–	0.578	–
partner 0.8 µg/mL	–	0.116	–	0.225	–	0.148

Settings	Bliss interaction score
B. subtilis 168	0.128
S. aureus DSM 20231	0.0377
S. aureus Newman	0.0656
S. pneumoniae D39V [2]	-0.109
